Results: patent US9999614B2, “Combination for the prophylaxis and treatment of behavioural, mental, and cognitive disorders” (LTD “VALENTA-INTELLEKT”, priority 2012, dated 2018)

How the values were obtained:
[1] = system: amnesia caused by acute normobaric hypoxic hypoxia with hypercapnia; assay: Open-field method after acute normobaric hypoxic hypoxia with hypercapnia; type: in vivo, mice; details: i.p. once a day for 5 days, Melatonin 5 mg, Memantin 10 mg mono-use
Method: (§1) For this, the active substances Melatonin 3 mg/Memantin 10 mg, Melatonin 5 mg/Memantin 20 mg, Melatonin 10 mg/Memantin 20 mg were taken, and doses recommended for human beings were converted into doses adapted for mice according to the formula “(active substance/70(average weight of a human being))×7”. Then the compositions were dissolved in 5 mL of the solution and, according to the given formula, introduced to animals intraperitoneally once a day for 5 days.
The antiamnestic action of the compositions was also carried out on an model of amnesia caused by acute normobaric hypoxic hypoxia with hypercapnia in a so-called hermetic chamber on white non-linear male mice having a weight of 20-24 Γ with the CPAR development in the animals according to the open-field method. After CPAR teaching the animals were put in the hermetic chamber for 16-18 minutes, depending on manifestation of hypoxia symptoms and weight. This model was reproduced by placing mice, one by one, in glass jars of equal volume that were hermetically sealed. With consumption of oxygen its concentration in the jar air and in the organism lowered and the quantity of carbon dioxide, on the contrary, raised. As the result, acute hypoxic hypoxia with hypercapnia developed in the animals. The animals of the control group were subjected to false hypoxia, that is, the mice were put in glass jars of equal volume that were not closed. The substances under study and the sodium chloride isotonic solution (control) were used in comparison with Melatonin 5 mg (mono-use) and Memantin 10 mg (mono-use) in accordance with the above formula for adapting to animal models by intraperitoneal introduction, before teaching the mice, once a day for 5 days.

[2] = system: amnesia in mice, as caused by scopolamine; assay: CPAR, model of amnesia caused by scopolamine; type: in vivo; details: for Latent time of entering into the dark chamber / Number of mice not entered into the dark chamber, % / Number of mice taught to CPAR (%): scopolamine 1 mg/kg i.p., Melatonin 5 mg, Memantin 10 mg mono-use; for Number of mice taught to CPAR (%): agents i.p. once a day for 5 days; for Effect on scopolamine amnesia of the skill (in words): summary of Tables 3-4
Method: as §1
The CPAR test is the main model for evaluating substance influences on formation and replication of short-time memory in a normal condition and in an abnormal condition, i.e., induced amnesia. The CPAR is the most informative method among the methods that are used today for evaluating efficiency of substances with influence on the CNS of mammals (see, “Manual for Experimental (Pre-Clinical) Studies of New Pharmacological Substances”, 2000). The CPAR (conditioned passive avoidance reflex in a dark, light chamber) was taught to the mice on the basis of electrodermal response according to the method proposed by Cumin et al. (1982) with due regard to the recommendations given by Mondadori et al. (1990). The installation for mice, as produced by Lafayette Instrument Co., USA, was a black chamber with the electrode floor and a white plastic platform that was arranged on the floor in the center of the chamber. The mice, one by one, were put onto the plastic platform. The animals went/jumped down onto the electrode floor where they received an electric current shock, i.e., punishment. Electric current was supplied after the time when an animal stood on the floor with all its four legs. The natural response of the animals is to go back to the current-free or safe platform. […] Tests for memorizing CPAR were conducted in successive time intervals after amnesic action. In a case where an animal went/jumped down onto the platform within 1 minute, it was recorded as having retrograde amnesia of the passive avoidance skill. The compositions were studied in comparison with Melatonin 5 mg (mono-use) and Memantin 10 mg (mono-use), according to the above formula for adapting to animal models.
The compositions under study were dissolved in 5 mL of the solution and, according to the above formula, introduced to the animals intraperitoneally, once a day for 5 days.

[3] = system: amnestic effect caused by mice swimming in cold water, simultaneously rotating wheel to the point of exhaustion; assay: CPAR, amnesia induced by swimming in cold water with wheel rotation to the point of exhaustion; type: in vivo; details: Melatonin 5 mg, Memantin 10 mg mono-use
Method: as §1
The CPAR test is the main model for evaluating substance influences on formation and replication of short-time memory in a normal condition and in an abnormal condition, i.e., induced amnesia. The CPAR is the most informative method among the methods that are used today for evaluating efficiency of substances with influence on the CNS of mammals (see, “Manual for Experimental (Pre-Clinical) Studies of New Pharmacological Substances”, 2000). The CPAR (conditioned passive avoidance reflex in a dark, light chamber) was taught to the mice on the basis of electrodermal response according to the method proposed by Cumin et al. (1982) with due regard to the recommendations given by Mondadori et al. (1990). The installation for mice, as produced by Lafayette Instrument Co., USA, was a black chamber with the electrode floor and a white plastic platform that was arranged on the floor in the center of the chamber. The mice, one by one, were put onto the plastic platform. The animals went/jumped down onto the electrode floor where they received an electric current shock, i.e., punishment. Electric current was supplied after the time when an animal stood on the floor with all its four legs. The natural response of the animals is to go back to the current-free or safe platform. After several minutes of teaching, 5 minutes on the average, mice developed CPAR and remained on the safe platform. Tests for memorizing CPAR were conducted in successive time intervals after amnesic action. In a case where an animal went/jumped down onto the platform within 1 minute, it was recorded as having retrograde amnesia of the passive avoidance skill. The compositions were studied in comparison with Melatonin 5 mg (mono-use) and Memantin 10 mg (mono-use), according to the above formula for adapting to animal models.
The antiamnestic action of the compositions on the amnesia model induced by swimming of mice in cold water with wheel rotation to the point of exhaustion. Studies were conducted on white non-linear male mice having a weight of 20-24 g with developing CPAR in the animals as in the previous studies. The animals were put, one by one, into a container filled with water and equipped with a rotating wheel. After teaching CPAR, the mice swam in cold water, simultaneously rotating the wheel to the point of exhaustion. The CPAR maintenance was checked in successive time intervals. As false imitation of swimming in cold water, mice were put onto a pad consisting of wet cold wadding. The substances and an isotonic solution of sodium chloride (control) were studied in comparison with Melatonin 5 mg (mono-use) and Memantin 10 mg (mono-use), in accordance with the above formula for adapting to animal models, by intraperitoneal introduction before teaching mice, once a day for 5 days.

Row | SMILES | Horizontal motion activity ([1]; 1st day after operation) | Inspection of holes ([1]; 1st day after operation) | Vertical motion activity ([1]; 1st day after operation) | Horizontal motion activity ([1]; 3rd day after operation) | Inspection of holes ([1]; 3rd day after operation) | Vertical motion activity ([1]; 3rd day after operation) | Horizontal motion activity ([1]; 7th day after operation) | Inspection of holes ([1]; 7th day after operation) | Vertical motion activity ([1]; 7th day after operation) | Horizontal motion activity ([1]; 10th day after operation) | Inspection of holes ([1]; 10th day after operation) | Vertical motion activity ([1]; 10th day after operation) | Latent time of entering into the dark chamber ([2]; 1 day after teaching) [s] | Number of mice not entered into the dark chamber, % ([2]; 1 day after teaching) [%] | Latent time of entering into the dark chamber ([2]; 3 days after teaching) [s] | Number of mice not entered into the dark chamber, % ([2]; 3 days after teaching) [%] | Latent time of entering into the dark chamber ([2]; 7 days after teaching) [s] | Number of mice not entered into the dark chamber, % ([2]; 7 days after teaching) [%] | Latent time of entering into the dark chamber ([2]; 10 days after teaching) [s] | Number of mice not entered into the dark chamber, % ([2]; 10 days after teaching) [%] | also measured
1 | COc1ccc2[nH]cc(CCNC(C)=O)c2c1 [Melatonin, N-acetyl-5-methoxytriptamine] | 6.9 ± 2.3 | 1.7 ± 0.6 | 3.2 ± 1.2 | 8.2 ± 1.4 | 1.9 ± 0.8 | 3.5 ± 0.9 | 8.3 ± 2.8 | 2.4 ± 0.5 | 3.2 ± 1.3 | 8.1 ± 1.7 | 2.6 ± 2.9 | 3.6 ± 2.3 | 111.3 ± 15.7 | 58.3 | 107.4 ± 21.2 | 54.5 | 105.8 ± 17.4 | 45.4 | 101.2 ± 20.6 | 36.3 | Number of mice taught to CPAR (%) [2]: 66.7%; Effect on scopolamine amnesia of the skill (in words) [2]: influenced on amnesia of the skill obtained, but insignificantly; Latent time of entering into the dark chamber ([3]; 1 day after teaching): 109.3 ± 9.8 s; Number of mice not entered into the dark chamber, % ([3]; 1 day after teaching): 61.5%; Latent time of entering into the dark chamber ([3]; 3 days after teaching): 105.4 ± 13.5 s; Number of mice not entered into the dark chamber, % ([3]; 3 days after teaching): 46.1%; Latent time of entering into the dark chamber ([3]; 7 days after teaching): 104.6 ± 15.1 s; Number of mice not entered into the dark chamber, % ([3]; 7 days after teaching): 38.5%; Latent time of entering into the dark chamber ([3]; 10 days after teaching): 100.9 ± 17.4 s; Number of mice not entered into the dark chamber, % ([3]; 10 days after teaching): 30.7%
2 | CC12CC3CC(C)(C1)CC(N)(C3)C2 [Memantin] | 7.1 ± 2.7 | 2.1 ± 1.1 | 3.7 ± 1.9 | 8.9 ± 4.9 | 2.5 ± 1.1 | 3.3 ± 1.2 | 9.6 ± 3.4 | 3.0 ± 2.7 | 3.7 ± 1.8 | 11.3 ± 1.7 | 3.2 ± 1.3 | 4.1 ± 2.5 | 110.8 ± 25.8 | 50 | 114.4 ± 18.2 | 60 | 111.1 ± 21.2 | 40 | 108.6 ± 18.7 | 40 | Number of mice taught to CPAR (%) [2]: 70%; Effect on scopolamine amnesia of the skill (in words) [2]: influenced on amnesia of the skill obtained, but insignificantly; Latent time of entering into the dark chamber ([3]; 1 day after teaching): 111.3 ± 22.3 s; Number of mice not entered into the dark chamber, % ([3]; 1 day after teaching): 41.6%; Latent time of entering into the dark chamber ([3]; 3 days after teaching): 115.9 ± 16.5 s; Number of mice not entered into the dark chamber, % ([3]; 3 days after teaching): 50%; Latent time of entering into the dark chamber ([3]; 7 days after teaching): 117.4 ± 28.1 s; Number of mice not entered into the dark chamber, % ([3]; 7 days after teaching): 66.6%; Latent time of entering into the dark chamber ([3]; 10 days after teaching): 118.0 ± 23.3 s; Number of mice not entered into the dark chamber, % ([3]; 10 days after teaching): 66.6%
